Laboratory results published in patent US20040091947A1, “Screening strategy for anticancer drugs” (priority 2002, published 2004).

Experiments:
[1] = test system: HT1080 cells transduced with GSE56; assay: FACS analysis of GF7/PI stained cells, radiation-induced changes in MI; assay type: cell-based, human; settings: 4 mM caffeine, 9 Gy irradiation
Method: (§1) Mitotic index and the incidence of mitotic catastrophe were determined using mitotic cell specific antibodies (MCSA) as follows. Three different MCSA were compared using fluorescence activated cell sorting (FACS) based on immunofluorescence labeling with MCSA coupled with propidium iodide (PI) staining for DNA content. In this procedure, cells were washed, trypsinized, fixed with an equal volume of 70% ethanol (on ice), resuspended in a small volume of 1% BSA-PBS containing an MCSA, incubated for 1 hour at room temperature, and then washed and bound with secondary (fluorescently-labeled) antibody. The tested MCSA included MPM2 (available from Upstate Biotechnology, Cat. #05-368) and two antibodies provided by Dr. P. Davies (Albert Einstein College of Medicine), including the previously characterized TG3 (Anderson et al., 1998, Exp. Cell Res. 238: 498-502) and unpublished GF7 antibody.
(§2) FACS analysis of GF7/PI stained cells was used to analyze radiation-induced changes in the MI of HT1080 fibrosarcoma cells with different cell cycle checkpoint integrity status.

wild-type HT1080 cells = assay: as above; assay type: cell-based, human; settings: 4 mM caffeine, 9 Gy irradiation
Method: as §1, §2

BJ-EN cells [2] = assay: Cell growth / cell number by Coulter counter, doxorubicin-treated cells
BJ-ELB cells [3] = assay: as above; assay type: cell-based, human
Method: These cell lines were cultured in a 4:1 mixture of DMEM and Medium 199, with 10% fetal calf serum, supplemented with glutamine, pyruvate, penicillin and streptomycin.
For comparative analysis of specific cellular responses, a concentration of 30 nM doxorubicin was chosen, which had approximately equal growth-inhibitory effect in both cell lines (FIG. 3B).

BJ-EN cells [4] = assay: Fluorescence microscopy of DAPI-stained cells (micronuclei, apoptotic morphology, mitotic index, mitotic figures)
[5] = test system: panel of 14 solid tumor-derived cell lines; settings: moderate equitoxic doses of doxorubicin, 14 lines, cited from earlier work
BJ-ELB cells [6] = assay: Fluorescence microscopy of DAPI-stained cells (micronuclei, apoptotic morphology, mitotic index, mitotic figures)
[7] = after release from 30 nM doxorubicin (3 days)
[8] = day 2 after release from 30 nM doxorubicin
[9] = two days after release from 30 nM doxorubicin (3 days)
[10] = two days after release from doxorubicin

Cn1c(=O)c2c(ncn2C)n(C)c1=O [caffeine]
increase in MI after irradiation in the presence of caffeine [1]: up to 3 fold | increase in MI after irradiation in the presence of caffeine (wild-type HT1080 cells): ~2 fold

COc1cccc2c1C(=O)c1c(O)c3c(c(O)c1C2=O)C[C@@](O)(C(=O)CO)C[C@@H]3O[C@H]1C[C@H](N)[C@H](O)[C@H](C)O1 [doxorubicin]
change in cell number during doxorubicin treatment (BJ-EN cells [2]; 30 nM doxorubicin, 3 days, BJ-EN): essentially no change in cell number | resistance to doxorubicin (effect on cell growth) (BJ-EN cells [2]; 3-day exposure to different concentrations, BJ-EN compared with BJ-ELB, except for the lowest drug doses): more resistant to doxorubicin than BJ-ELB cells | change in cell number after release from the drug (BJ-EN cells [2]; three days in drug-free media after 30 nM doxorubicin for 3 days, BJ-EN): did not change significantly | change in cell number during doxorubicin treatment (BJ-ELB cells [3]; 30 nM doxorubicin, first day): increased their number on the first day | change in cell number after release from the drug (BJ-ELB cells [3]; day 3 after release (3 dR) from 30 nM doxorubicin): decreased to the same value as at the time of doxorubicin addition | effect of addition of doxorubicin on mitosis (BJ-EN cells [4]; 30 nM doxorubicin present): immediate and complete cessation of mitosis | fraction of cells with apoptotic morphology (BJ-EN cells [4]; [7]): 0.9% | mitotic index (MI) (BJ-EN cells [4]; [8]): 0.4% | micronucleated cell fraction (BJ-EN cells [4]; [9]): 1.7% | abnormal mitotic figures (BJ-EN cells [4]; [10]): 40% | mitotic figures that were metaphases and telophases (BJ-EN cells [4]; [10]): 29% | normal mitotic figures (BJ-EN cells [4]; [10]): 60% | lines that showed predominantly apoptotic response ([5]; all other lines developed mitotic catastrophe): two | lines that exhibited the senescent phenotype after doxorubicin treatment [5]: Eleven of 14 | effect of addition of doxorubicin on mitosis (BJ-ELB cells [6]; 30 nM doxorubicin present): only partially inhibited | fraction of cells with apoptotic morphology (BJ-ELB cells [6]; [7]): 6.6% | mitotic index (MI) (BJ-ELB cells [6]; [8]): 8.0% | micronucleated cell fraction (BJ-ELB cells [6]; [9]): 26.4% | mitotic figures that represented anaphase or telophase (BJ-ELB cells [6]; [10]): 1% | normal mitotic figures (BJ-ELB cells [6]; [10]): 8%
